# Source: patent US20060264367A1, “Prevention of fibrosis following cardiac injury” (Howard Florey Institute, priority 2005, published 2006)
# How the values were obtained:
# Assay type in all cases: cell-based, rat
# [1] = test system: atrial and ventricular fibroblasts; assay: Cardiac fibroblast proliferation (cell counts and [3H]-thymidine incorporation); conditions: for increase in fibroblast proliferation: 3 days; for increase in atrial and ventricular fibroblast proliferation: 72 h
# Method: The ability of rhRLX to modulate cardiac fibroblast proliferation was investigated in the absence or presence of Ang II and IGF-I, which both potently stimulate fibroblast proliferation. Cardiac fibroblasts were plated at an equal density of 10^4 cells/96-well plate in DMEM-FBS. Twenty-four hours later, media were changed to DMEM supplemented with lactalbumin hydrolysate, and cells were labelled with [^3H]-thymidine (3 μCi/ml) in the presence of rhRLX (100 ng/ml) alone or in combination with IGF-I (0.1 μg/ml, 0.5 μg/ml, and 1 μg/ml) or Ang II (10^−8 M and 10^−7 M) for 72 hours. [^3H]-thymidine incorporation and cell counts, using a hemocytometer, were evaluated.
# MMP-2 = assay: Gelatin zymography of conditioned media, MMP-2 expression; conditions: TGF-β 2 ng/ml alone, 72 h
# Method: The effects of rhRLX on MMP expression, were determined using gelatin zymography of conditioned media, performed as previously described (Talhouk R S et al. (1991) 112:439-449). Briefly, the neonatal cardiac cells (1×10^5/cm^2) were treated with either TGF-β (2 ng/ml) or Ang II (10^−7 M) in the absence or presence of rhRLX (100 ng/ml) for 72 h; the final 24 hours of treatment were under serum-free conditions. Equal aliquots of the collected media were then analyzed on zymogram gels consisting of 7.5% acrylamide and 1 mg/ml gelatin, and the gels were subsequently treated as previously detailed (Talhouk R S, supra).
# [2] = test system: atrial and ventricular fibroblasts; assay: Collagen deposition into the cell matrix (hydroxyproline content of cell layers); conditions: stimulus alone, 72 h
# Method: (§1) Distribution of relaxin and LGR7 expression was determined in atrial myocytes and fibroblasts, ventricular myocytes and fibroblasts, and vascular smooth muscle cells (VSMC). These cells were obtained from neonate rats using standard collagenase digestion methods. Neonate (1 day old) Sprague Dawley rats were used for tissue collection and subsequent cardiac cell isolation and preparation. The cells were maintained in DMEM supplemented with 10% fetal calf serum, penicillin (50 U/ml), and streptomycin (50 μg/ml) (DMEM-FBS). Cardiac fibroblast isolation from myocytes and subsequent preparation were performed as described previously (Gray M O et al. (1998) Cardiovasc Res 40:352-363). These preparations contained more than 95% cardiac fibroblasts as determined by morphological appearance and immunocytochemical staining. Fibroblasts were used between passages 2 and 4 for all studies.
# Fibroblasts were also plated at 5/mm^2 and grown for 7 days in the absence or presence of rhRLX (100 ng/ml). […]
# Collagen content of cell layers from untreated fibroblasts and cells treated with rhRLX (100 ng/ml) alone, TGF-β (2 ng/ml) alone, or TGF-β (2 ng/ml) and rhRLX (100 ng/ml) was measured after 72 hours of culture. The collagen content of cell layers from untreated atrial fibroblasts and cells treated with Ang II (10^−7 M) alone or Ang II (10^−7 M) and rhRLX (100 ng/ml) was measured after 72 hours of culture. […]
# α-SMA = assay: Fibroblast differentiation to myofibroblasts, Western blot of α-SMA; conditions: TGF-β 2 ng/ml or Ang II 10^−7 M alone, 72 h, ventricular fibroblasts
# Description: In the normal heart, cardiac fibroblasts are relatively quiescent, but upon pathological stimuli to the heart they proliferate and differentiate into activated myofibroblasts. These myofibroblasts, the hallmarks of which are α-SMA expression and production of prodigious amounts of collagen, are important contributors to fibrosis and the pathology of the heart (Eghbali M (1998) Basic Res Cardiol 87(Suppl 2):183-189; Bouzegrhane F, Thibault G (2002) Cardiovasc Res 53:304-312). Ventricular fibroblast differentiation to myofibroblasts was analyzed by measuring α-SMA expression by ventricular fibroblasts. In all experiments, an equal amount of total protein (10 μg/sample) was analyzed. α-SMA was sized at 43 kDa under nonreducing conditions when detected with a monoclonal antibody. In some experiments, cells were either untreated or treated with TGF-β (2 ng/ml) alone or TGF-β (2 ng/ml) and rhRLX (100 ng/ml) for 72 hours. In other experiments, cells were either untreated or treated with Ang II (10^−7 M) alone or Ang II (10^−7 M) and rhRLX (100 ng/ml) for 72 hours.
# Fibroblast differentiation into myofibroblasts was determined by α-SMA expression. […] Cell layers were trypsinized, and the protein was extracted using Trizol reagent (according to the manufacturer's instructions; Life Technologies, Gaithersburg, Md.) and analyzed by the Bio-Rad dye-binding protein assay (Bio-Rad, Richmond, Calif.). […]
# [3] = test system: atrial and ventricular fibroblasts; assay: Collagen secretion into media by cardiac fibroblasts ([3H]-proline labelling); conditions: 72 h
# Method: as §1
# Atrial and ventricular fibroblasts were subjected to TGF-β or Ang II in the absence or presence of rhRLX over 3 days. For the TGF-β studies, cells were treated for 72 hours with rhRLX (100 ng/ml), TGF-β (1 or 2 ng/ml), or a combination of rhRLX (100 ng/ml) and TGF-β (2 ng/ml) in serum-free DMEM supplemented with lactalbumin hydrolysate. For the Ang II studies, fibroblasts were treated with Ang II (1×10^−7 M and 5×10^−7 M) or a combination of rhRLX (100 ng/ml) and Ang II (1 or 5×10^−7 M). TGF-B3 (1 ng/ml) alone induced an 85-95% increase in secretion of interstitial (types I and III) collagen into the cultured media.
# For measurement of collagen synthesis, collagen was biosynthetically labelled with [^3H]-proline in the presence of ascorbate and β-aminopropionitrile, as previously described (Unemori et al, supra). For measurement of collagen deposition into the cell matrix, cell layers (per well) were isolated and hydrolyzed with 6 M hydrochloric acid for measurement of hydroxyproline content, as described previously (Samuel C S et al. (1996) Endocrinology 137:3884-3890; Gallop P M, Paz M A (1975) Physiol Rev 55:418487). […]
Substance,increase in fibroblast proliferation ([1]; IGF-I 0.1 μg/ml),increase in fibroblast proliferation ([1]; IGF-I 0.5 μg/ml),increase in fibroblast proliferation ([1]; IGF-I 1.0 μg/ml),MMP-2 expression (MMP-2),up-regulation of collagen deposition into the matrix of fibroblasts [2],increase in α-SMA expression (α-SMA),increase in secretion of interstitial (types I and III) collagen into the cultured media ([3]; 1 ng/ml alone),increase in atrial and ventricular fibroblast proliferation ([1]; Ang II 10^−7 M),increase in atrial and ventricular fibroblast proliferation ([1]; Ang II 10^−8 M),increase in collagen secretion ([3]; Ang II 1×10^−7 M alone),increase in collagen secretion ([3]; Ang II 5×10^−7 M alone)
IGF-I: growth factor that potently stimulates fibroblast proliferation,27-30%,36-40%,34-40%,,,,,,,,
TGF-β,,,,modest increase,65-85%,85-95%,85-95%,,,,
"angiotensin II (DRVYIHPF; Angiotensin-2; UniProt P01019 25-32, looked up) [Ang II, angiotensin II, profibrotic stimulus obtained from Sigma-Aldrich]",,,,,20-50%,25-35%,,6473%,63-75%,50-60%,15-20%
